US20250311727A1, “SUBSTITUTED 2-AMINOAZINES AND SALTS THEREOF, AND USE THEREOF AS HERBICIDAL ACTIVE SUBSTANCES” (BAYER AKTIENGESELLSCHAFT, priority 2022, published 2025)

Assays:
Format in all cases: in vivo
[1] = tested on: Veronica persica; experiment: Pre-emergence herbicide efficacy at 320 g/ha, VERPE; details: scored visually after about 3 weeks vs untreated controls, 100% = plants have died
Procedure, shortened: (§1)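 Weed seeds were sown in sandy loam, covered with soil, and the soil surface was sprayed with WP- or EC-formulated compound as aqueous suspension/emulsion plus 0.5% additive at 600 L/ha water. Pots stood in a greenhouse; about 3 weeks later efficacy was scored visually as % versus untreated controls (100% = plants dead, 0% = like control).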

[2] = tested on: Amaranthus retroflexus; experiment: Post-emergence herbicidal efficacy at 80 g/ha, AMARE; details: rated visually after about 3 weeks vs untreated controls, 100% = plants have died
Procedure, shortened: (§2)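 Weeds grown from seed in sandy loam under controlled greenhouse conditions were sprayed on green parts at the one-leaf stage, 2 to 3 weeks after sowing. WP or EC formulations were applied in water with 0.5% additive at 600 l/ha. Activity was scored visually about 3 weeks later against untreated controls (0% = like control, 100% = dead).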

[3] = tested on: Amaranthus retroflexus; experiment: Post-emergence herbicidal efficacy at 320 g/ha, AMARE; details: rated visually after about 3 weeks vs untreated controls, 100% = plants have died
Procedure, shortened: (§3)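 Visual rating about 3 weeks after treatment, scored against untreated plants on a scale from 0% (no effect) to 100% (dead). Application was foliar, as aqueous WP or EC suspension or emulsion with 0.5% additive at 600 L/ha, on one-leaf-stage greenhouse plants 2–3 weeks old, grown in sandy loam.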

[4] = tested on: Setaria viridis; experiment: Pre-emergence herbicide efficacy at 80 g/ha, SETVI
Source text: (§4) Unwanted plants/weeds: • ABUTH: Abutilon theophrasti • ALOMY: Alopecurus myosuroides • AMARE: Amaranthus retroflexus • DIGSA: Digitaria sanguinalis • ECHCG: Echinochloa crus-galli • KCHSC: Kochia scoparia • LOLRI: Lolium rigidum • MATIN: Matricaria inodora • POAAN: Poa annua • POLCO: Polygonum convolvulus • SETVI: Setaria viridis • STEME: Stellaria media • VERPE: Veronica persica • VIOTR: Viola tricolor A. Post-Emergence Herbicidal Efficacy at 320 g/ha
(§5) Seeds of monocotyledonous and dicotyledonous weed plants and crop plants were placed in plastic or organic planting pots and covered with soil. The compounds of the invention, formulated in the form of wettable powders (WP) or as emulsion concentrates (EC), were then applied to the surface of the covering soil as aqueous suspension or emulsion with addition of 0.5% additive at a water application rate equivalent to 600 l/ha. After the treatment, the pots were placed in a greenhouse and kept under good growth conditions for the test plants. After about 3 weeks, the efficacy of the preparations was scored visually in comparison with untreated controls as percentages. For example, 100% activity=the plants have died, 0% activity=like control plants.
(§6) Tables D1 to D12 below show the effects of selected compounds of the general formula (I) according to Table 1 on various harmful plants and an application rate corresponding to 80 g/ha, which were obtained by the experimental procedure mentioned above.

[5] = tested on: Veronica persica; experiment: Post-emergence herbicidal efficacy at 80 g/ha, VERPE; details: rated visually after about 3 weeks vs untreated controls, 100% = plants have died
Procedure, shortened: as §2

[6] = tested on: Echinochloa crus-galli; experiment: Pre-emergence herbicide efficacy at 320 g/ha, ECHCG; details: scored visually after about 3 weeks vs untreated controls, 100% = plants have died
Procedure, shortened: as §1

[7] = tested on: Setaria viridis; experiment: Pre-emergence herbicide efficacy at 320 g/ha, SETVI; details: scored visually after about 3 weeks vs untreated controls, 100% = plants have died
Procedure, shortened: as §1

[8] = tested on: Digitaria sanguinalis; experiment: Pre-emergence herbicide efficacy at 320 g/ha, DIGSA; details: scored visually after about 3 weeks vs untreated controls, 100% = plants have died
Procedure, shortened: as §1

[9] = tested on: Digitaria sanguinalis; experiment: Pre-emergence herbicide efficacy at 80 g/ha, DIGSA; details: scored visually after about 3 weeks vs untreated controls, 100% = plants have died
Source text: as §4, §5, §6

[10] = tested on: Abutilon theophrasti; experiment: Post-emergence herbicidal efficacy at 320 g/ha, ABUTH; details: rated visually after about 3 weeks vs untreated controls, 100% = plants have died
Procedure, shortened: as §3

[11] = tested on: Polygonum convolvulus; experiment: Pre-emergence herbicide efficacy at 80 g/ha, POLCO; details: scored visually after about 3 weeks vs untreated controls, 100% = plants have died
Source text: as §4, §5, §6

[12] = tested on: Viola tricolor; experiment: Post-emergence herbicidal efficacy at 80 g/ha, VIOTR; details: rated visually after about 3 weeks vs untreated controls, 100% = plants have died
Source text: as §4
(§7) Seeds of monocotyledonous and dicotyledonous weeds and crop plants were placed in sandy loam in plastic or organic planting pots, covered with soil and cultivated in a greenhouse under controlled growth conditions. 2 to 3 weeks after sowing, the test plants were treated at the one-leaf stage. The compounds of the invention, formulated in the form of wettable powders (WP) or as emulsion concentrates (EC), were then sprayed onto the green parts of the plants as aqueous suspension or emulsion with addition of 0.5% additive at a water application rate of 600 l/ha (converted). After the test plants had been kept in the greenhouse under optimum growth conditions for about 3 weeks, the activity of the preparations was rated visually in comparison to untreated controls. For example, 100% activity=the plants have died, 0% activity=like control plants.
(§8) Tables B1 to B11 below show the effects of selected compounds of the general formula (I) according to Table 1 on various harmful plants and an application rate corresponding to 80 g/ha, which were obtained by the experimental procedure mentioned above.

[13] = tested on: Amaranthus retroflexus; experiment: Pre-emergence herbicide efficacy at 80 g/ha, AMARE; details: scored visually after about 3 weeks vs untreated controls, 100% = plants have died
Procedure, shortened: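 Seeds sown in pots and covered with soil; compounds formulated as WP or EC were sprayed onto the soil surface as aqueous suspension/emulsion with 0.5% additive at 600 l/ha water. Pots kept in greenhouse; after about 3 weeks efficacy scored visually as % versus untreated controls (100% = plants died, 0% = like control).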

[14] = tested on: Poa annua; experiment: Pre-emergence herbicide efficacy at 320 g/ha, POAAN; details: scored visually after about 3 weeks vs untreated controls, 100% = plants have died
Procedure, shortened: as §1

[15] = tested on: Stellaria media; experiment: Post-emergence herbicidal efficacy at 320 g/ha, STEME; details: rated visually after about 3 weeks vs untreated controls, 100% = plants have died
Procedure, shortened: as §3

[16] = tested on: Echinochloa crus-galli; experiment: Post-emergence herbicidal efficacy at 320 g/ha, ECHCG; details: rated visually after about 3 weeks vs untreated controls, 100% = plants have died
Procedure, shortened: as §3

[17] = tested on: Abutilon theophrasti; experiment: Pre-emergence herbicide efficacy at 320 g/ha, ABUTH; details: scored visually after about 3 weeks vs untreated controls, 100% = plants have died
Source text: as §4
(§9) Seeds of mono- and dicotyledonous weed plants were placed in plastic pots in sandy loam soil (doubly sown with one species each of mono- or dicotyledonous weed plants per pot) and covered with soil. The compounds of the invention, formulated in the form of wettable powders (WP) or as emulsion concentrates (EC), were then applied to the surface of the covering soil as aqueous suspension or emulsion with addition of 0.5% additive at a water application rate of 600 litres per hectare (converted). After the treatment, the pots were placed in a greenhouse and kept under good growth conditions for the test plants. After about 3 weeks, the efficacy of the preparations was scored visually in comparison with untreated controls as percentages.
(§10) For example, 100% activity=the plants have died, 0% activity=like control plants.
(§11) Tables C1 to C12 below show the effects of selected compounds of the general formula (I) according to Table 1 on various harmful plants and at an application rate corresponding to 320 g/ha, which were obtained by the trial procedure specified above.

[18] = tested on: Veronica persica; experiment: Post-emergence herbicidal efficacy at 320 g/ha, VERPE; details: rated visually after about 3 weeks vs untreated controls, 100% = plants have died
Procedure, shortened: as §3

[19] = tested on: Alopecurus myosuroides; experiment: Post-emergence herbicidal efficacy at 80 g/ha, ALOMY; details: rated visually after about 3 weeks vs untreated controls, 100% = plants have died
Source text: as §4, §7, §8

[20] = tested on: Setaria viridis; experiment: Post-emergence herbicidal efficacy at 320 g/ha, SETVI; details: rated visually after about 3 weeks vs untreated controls, 100% = plants have died
Source text: as §4
(§12) Seeds of mono- and dicotyledonous weed plants were placed in plastic pots in sandy loam soil (doubly sown with in each case one species of mono- or dicotyledonous weed plants per pot), covered with soil and cultivated in a greenhouse under controlled growth conditions. 2 to 3 weeks after sowing, the test plants were treated at the one-leaf stage. The compounds of the invention, formulated in the form of wettable powders (WP) or as emulsion concentrates (EC), were applied to the green parts of the plants as aqueous suspension or emulsion with addition of 0.5% additive at a water application rate equivalent to 600 litres per hectare. After the test plants had been kept in the greenhouse under optimum growth conditions for about 3 weeks, the activity of the preparations was rated visually in comparison to untreated controls.
as §10
(§13) Tables A1 to A10 below show the effects of selected compounds of the general formula (I) according to Table 1 on various harmful plants and at an application rate corresponding to 320 g/ha, which were obtained by the trial procedure specified above.

[21] = tested on: Stellaria media; experiment: Pre-emergence herbicide efficacy at 320 g/ha, STEME; details: scored visually after about 3 weeks vs untreated controls, 100% = plants have died
Procedure, shortened: as §1

[22] = tested on: Viola tricolor; experiment: Pre-emergence herbicide efficacy at 80 g/ha, VIOTR
Source text: as §4, §5, §6

[23] = tested on: Kochia scoparia; experiment: Post-emergence herbicidal efficacy at 320 g/ha, KCHSC; details: rated visually after about 3 weeks vs untreated controls, 100% = plants have died
Procedure, shortened: as §3

[24] = tested on: Alopecurus myosuroides; experiment: Pre-emergence herbicide efficacy at 320 g/ha, ALOMY; details: scored visually after about 3 weeks vs untreated controls, 100% = plants have died
Source text: as §4, §9, §10, §11

[25] = tested on: Alopecurus myosuroides; experiment: Post-emergence herbicidal efficacy at 320 g/ha, ALOMY; details: rated visually after about 3 weeks vs untreated controls, 100% = plants have died
Source text: as §4, §12, §10, §13

[26] = tested on: Abutilon theophrasti; experiment: Post-emergence herbicidal efficacy at 80 g/ha, ABUTH; details: rated visually after about 3 weeks vs untreated controls, 100% = plants have died
Source text: as §4, §7, §8

[27] = tested on: Kochia scoparia; experiment: Pre-emergence herbicide efficacy at 320 g/ha, KCHSC; details: scored visually after about 3 weeks vs untreated controls, 100% = plants have died
Procedure, shortened: as §1

[28] = tested on: Amaranthus retroflexus; experiment: Pre-emergence herbicide efficacy at 320 g/ha, AMARE; details: scored visually after about 3 weeks vs untreated controls, 100% = plants have died
Procedure, shortened: as §1

Cc1cnc(Nc2cccc(F)c2-c2cc(C(F)F)no2)nc1 [Example 1-36]
Pre-emergence efficacy at 320 g/ha against VERPE in % [1]: 100% | Post-emergence efficacy at 80 g/ha against AMARE in % [2]: 90% | Post-emergence efficacy at 320 g/ha against AMARE in % [3]: 100% | Pre-emergence efficacy against SETVI [4]: 90% | Post-emergence efficacy at 80 g/ha against VERPE in % [5]: 80% | Pre-emergence efficacy at 320 g/ha against ECHCG in % [6]: 100% | Pre-emergence efficacy at 320 g/ha against SETVI in % [7]: 100% | Pre-emergence efficacy at 320 g/ha against DIGSA in % [8]: 100% | Pre-emergence efficacy at 80 g/ha against DIGSA in % [9]: 90% | Post-emergence efficacy at 320 g/ha against ABUTH in % [10]: 100% | Pre-emergence efficacy at 80 g/ha against POLCO in % [11]: 90% | Post-emergence efficacy at 80 g/ha against VIOTR in % [12]: 100% | Pre-emergence efficacy at 80 g/ha against AMARE in % [13]: 90% | Pre-emergence efficacy at 320 g/ha against POAAN in % [14]: 100% | Post-emergence efficacy at 320 g/ha against STEME in % [15]: 100% | Post-emergence efficacy at 320 g/ha against ECHCG in % [16]: 100% | Pre-emergence efficacy at 320 g/ha against ABUTH in % [17]: 100% | Post-emergence efficacy at 320 g/ha against VERPE in % [18]: 100% | Post-emergence efficacy at 80 g/ha against ALOMY in % [19]: 80% | Post-emergence efficacy at 320 g/ha against SETVI in % [20]: 100% | Pre-emergence efficacy at 320 g/ha against STEME in % [21]: 100% | Pre-emergence efficacy against VIOTR [22]: 80% | Post-emergence efficacy at 320 g/ha against KCHSC in % [23]: 100% | Pre-emergence efficacy at 320 g/ha against ALOMY in % [24]: 100% | Post-emergence efficacy at 320 g/ha against ALOMY in % [25]: 100% | Post-emergence efficacy at 80 g/ha against ABUTH in % [26]: 100% | Pre-emergence efficacy at 320 g/ha against KCHSC in % [27]: 100% | Pre-emergence efficacy at 320 g/ha against AMARE in % [28]: 100%
